# Results: article PMC5944028, “Nonclinical and clinical pharmacological characterization of the potent and selective cathepsin K inhibitor MIV-711” (Journal of Translational Medicine, 2018)
# Assays:
# pKa = type: physicochemical
# rat cathepsin K = target: T1, rat cathepsin K (Rattus norvegicus, UniProt O35186); assay: Recombinant enzyme assay, rat cathepsin K; type: biochemical; conditions: footnote a: IC50
# T1 construct: made in house; host or cells: E. coli
# Description: (§1) Recombinant cathepsin K enzymes from all species were expressed in E. coli, purified and activated. Human cathepsin F and cathepsin S were expressed in Baculovirus, purified and activated. Purified human cathepsins B and H (Athens Research Technology), cathepsin L (Calbiochem), and cathepsin V (R & D Systems) were purchased.
# (§2) H-D-Ala_Leu-Lys-AMC was used as the substrate in assays of cathepsin K from non-rodent species (human, dog, rabbit and guinea pig), and Z-Leu-Arg-AMC was used as the substrate in assays of cathepsin K from rodent species (mouse and rat). […]
# (§3) Assays were carried out in white polystyrene 96-well plates in a final volume of 100 µL. […] Plates were read in a Fluoroskan Ascent (Thermo Labsystems, Helsinki, Finland) in kinetic mode, with excitation and emission filters of 390 and 460 nm, respectively. Rates were determined by linear regression of the fluorescence/time data in Excel. Rates were fitted by non-linear regression to either the competitive inhibition equation, with the substrate concentration fixed at the value in the assay and the KM fixed to the value previously determined, or the IC50 equation using GraphPad Prism (GraphPad, version 6, San Diego, USA) to obtain Ki or IC50 values, respectively.
# serum CTX-I = assay: Human serum CTX-I, single ascending dose study; type: in vivo, human healthy subjects
# Description: Twenty-seven healthy male and female subjects (18 male and 9 female) of any ethnic origin (24 White, 1 Asian, 1 Black, 1 Black/Caribbean White), aged between 19 and 64 years, and with a body mass index (BMI) between 18.0 and 32.0 kg/m^2, were selected for this study. Inclusion criteria for enrollment followed the standard practice for first-in-man studies.
# This was a randomized, double-blind, placebo-controlled, sequential, single-ascending dose study conducted at a single site with the objective of evaluating the safety, tolerability, pharmacokinetics (PK) and pharmacodynamics of MIV-711. Subjects were randomized into 3 groups using a computer-generated pseudo-random permutation procedure. Each group consisted of 9 subjects with at least 3 subjects of each gender per group and subjects participated in 1–2 treatment periods. There was a minimum of 10 days between dose escalations and a minimum of 20 days between dosing occasions for individual subjects. For each subsequent dosing occasion, the decision to escalate the dose to the next level was taken after a thorough review of the safety, tolerability and PK data. In each treatment period, 7 subjects received MIV-711 and 2 received placebo (comprising of 1 subject of each gender). Dosing occurred on the morning of Day 1 following an overnight fast and subjects were kept in the fasted state until approximately 4.5 h after dosing. MIV-711 was given as a combination of 10 or 40 mg hard gelatin capsules, while placebo was given in similar capsules of identical appearance.
# Blood samples were collected at pre-dose, 4, 8, 24 and 48 h post-dose and processed into serum for the measurement of CTX-I concentrations.
# The quantification of CTX-I in monkey plasma samples and human serum samples was performed using a commercially available kit (Serum CrossLaps ELISA, IDS Nordic, Herlev, Denmark). The levels of CTX-I in monkey urine samples were measured using a commercially available kit (Urine BETA CrossLaps ELISA, IDS Nordic). The quantification of NTX-I in monkey samples was performed using a commercially available kit (Osteomark NTx Urine, Wampole Laboratories, Inc, Princeton, USA). Urinary levels of CTX-II in monkey samples were measured using a commercially available kit (Urine CrossLaps EIA, IDS Nordic). The concentrations of biomarkers in the urine samples were corrected for creatinine concentrations. The creatinine levels in urine were determined at Swedish University of Agricultural Sciences, using the enzymatic assay (cat no. 8L24-01) on the Abbott system Architect c4000.
# urine NTX-I = assay: Monkey urine NTX-I, multiple doses; type: in vivo, cynomolgus monkeys (Macaca fascicularis)
# Method: Biomarkers such as NTX-I (bone resorption) and CTX-II (cartilage degradation) are typically measured in urine. Additional experiments in which urine was collected were therefore performed. In these experiments, four cynomolgus monkeys (Macaca fascicularis) were used (Aptuit, Edinburgh, UK). The animals were healthy young females weighing 3.5–4 kg. Animals were dosed with vehicle or MIV-711 via oral gavage at a dose volume of 5 mL/kg between 7:30 and 8:30 a.m. Animals first received vehicle via oral gavage for five consecutive days. After a washout period, the animals then received MIV-711 (30 µmol/kg) via oral gavage for five consecutive days.
# Urine was collected between 8–12 a.m., 12 a.m.–4 p.m. and 4 p.m.–8 a.m. on Day 1 and Day 5 of respective treatment. Biomarkers were measured in each urine sample, corrected for creatinine, and the mean value of the three samples on Day 1 and Day 5 was calculated. The effect of MIV-711 was evaluated by comparing biomarkers in urine samples collected on Day 1 and Day 5 with respective vehicle sample. [drawing 3]
# The quantification of CTX-I in monkey plasma samples and human serum samples was performed using a commercially available kit (Serum CrossLaps ELISA, IDS Nordic, Herlev, Denmark). The levels of CTX-I in monkey urine samples were measured using a commercially available kit (Urine BETA CrossLaps ELISA, IDS Nordic). […]
# human cathepsin K = target: T2, human cathepsin K (Homo sapiens, UniProt P43235); assay: Recombinant enzyme assay, human cathepsin K; type: biochemical
# T2 construct: made in house; host or cells: E. coli
# T2 sequence (P43235 115-329): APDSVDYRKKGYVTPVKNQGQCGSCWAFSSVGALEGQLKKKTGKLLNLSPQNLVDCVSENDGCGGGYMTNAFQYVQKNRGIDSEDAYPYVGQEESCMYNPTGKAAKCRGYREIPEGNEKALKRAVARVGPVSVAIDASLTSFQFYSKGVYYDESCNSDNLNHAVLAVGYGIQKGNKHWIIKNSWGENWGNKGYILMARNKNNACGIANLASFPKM
# Description: as §1, §2, §3
# T1 sequence (O35186 115-329): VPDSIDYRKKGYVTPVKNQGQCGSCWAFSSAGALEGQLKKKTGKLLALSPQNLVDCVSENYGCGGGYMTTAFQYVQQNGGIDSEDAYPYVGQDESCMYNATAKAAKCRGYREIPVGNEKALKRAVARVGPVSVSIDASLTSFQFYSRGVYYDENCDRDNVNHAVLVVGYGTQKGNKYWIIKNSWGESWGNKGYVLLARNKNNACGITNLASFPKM
smiles,measurement,setting,value
C#C[C@@H]1CN(C(=O)[C@H](CC(C)C)NC(=O)c2ccc(-c3nc(N4CCN(C)CC4)sc3F)cc2)[C@@H]2C(=O)CO[C@H]12 [MIV-711],pKa,pKa,7.15
same,IC50,rat cathepsin K,240 nM
same,Inhibition of serum CTX-I versus baseline at 24 h,serum CTX-I; 20 mg single dose,20%
same,Reduction of CTX-I at 24 h post-dose,serum CTX-I; 100 mg single dose,54%
same,Inhibition of serum CTX-I versus baseline at 24 h,serum CTX-I; 600 mg single dose,79%
same,Exposure required for 50% reduction of CTX-I at 24 h post dose,serum CTX-I; AUC0–24h,1.3 µmol/L/h
same,Reduction of urinary NTX-I compared to vehicle,"urine NTX-I; 30 µmol/kg p.o. once daily for 5 days, creatinine-corrected",71%
same,Effect on urinary NTX-I compared to vehicle,urine NTX-I; single dose 30 µmol/kg p.o. (Day 1),immediately reduced
same,Selectivity versus the other human cathepsins tested,"human cathepsin K; cathepsin K vs cathepsins B, L, F, V, H, S",more than 1300 fold
same,Ki,"human cathepsin K; human recombinant cathepsin K, geometric mean",0.98 nM
